Assay results: article PMC10178848, “Modulating fast skeletal muscle contraction protects skeletal muscle in animal models of Duchenne muscular dystrophy” (The Journal of Clinical Investigation, 2023)
Like-named read-outs stand apart in the source and are kept apart here.

What was measured:
ALK = target: T1, ALK (Homo sapiens, UniProt Q9UM73); test: KINOMEscan scanEDGE; format: binding; conditions: 20 uM
T1 construct: purchased Eurofins DiscoverX (KINOMEscan; SAFETYscan E/IC50 ELECT)

[1] = target: T2, ABL1(T315I)-phosphorylated (Homo sapiens, UniProt P00519, T315I); test: KINOMEscan scanEDGE; format: binding; conditions: 20 uM
T2 construct: purchased Eurofins DiscoverX (KINOMEscan; SAFETYscan E/IC50 ELECT)

TRKA = target: T3, TRKA (Homo sapiens, UniProt P04629); test: KINOMEscan scanEDGE; format: binding; conditions: 20 uM
T3 construct: purchased Eurofins DiscoverX (KINOMEscan; SAFETYscan E/IC50 ELECT)

CDK11 = target: T4, CDK11 (Homo sapiens, UniProt Q9BWU1); test: KINOMEscan scanEDGE; format: binding; conditions: 20 uM
T4 construct: purchased Eurofins DiscoverX (KINOMEscan; SAFETYscan E/IC50 ELECT)

BRAF = target: T5, BRAF (Homo sapiens, UniProt P15056); test: KINOMEscan scanEDGE; format: binding; conditions: 20 uM
T5 construct: purchased Eurofins DiscoverX (KINOMEscan; SAFETYscan E/IC50 ELECT)

[2] = test system: mdx mouse gastrocnemius muscle; test: RNA-Seq analysis of gastrocnemius muscle; format: in vivo
Description: RNA-Seq was performed with isolated single nuclei using the 10X Genomics Chromium Single Cell 3’ Protocol, Accessories, and Kits (CG000183 Rev A). Data were then analyzed by Rosalind (https://rosalind.onramp.bio/), with a HyperScale architecture developed by OnRamp BioInformatics Inc. Data have been submitted to the Gene Expression Omnibus (GEO) database at the NIH (accession GSE227510).

[3] = target: T6, JAK3(JH1domain-catalytic) (Homo sapiens, UniProt P52333); test: KINOMEscan scanEDGE; format: binding; conditions: 20 uM
T6 construct: JAK3(JH1domain-catalytic); purchased Eurofins DiscoverX (KINOMEscan; SAFETYscan E/IC50 ELECT)
T6 sequence (P52333 811-1124 limits assumed): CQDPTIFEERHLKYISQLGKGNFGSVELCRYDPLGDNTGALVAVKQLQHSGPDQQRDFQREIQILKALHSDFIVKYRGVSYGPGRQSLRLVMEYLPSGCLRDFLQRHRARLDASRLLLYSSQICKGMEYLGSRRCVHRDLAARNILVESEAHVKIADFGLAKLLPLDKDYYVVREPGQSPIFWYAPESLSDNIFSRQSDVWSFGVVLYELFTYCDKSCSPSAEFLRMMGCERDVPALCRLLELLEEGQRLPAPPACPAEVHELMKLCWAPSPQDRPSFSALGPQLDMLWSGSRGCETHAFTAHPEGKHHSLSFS

EGFR = target: T7, EGFR (Homo sapiens, UniProt P00533); test: KINOMEscan scanEDGE; format: binding; conditions: 20 uM
T7 construct: purchased Eurofins DiscoverX (KINOMEscan; SAFETYscan E/IC50 ELECT)

MEK2 = target: T8, MEK2 (Homo sapiens, UniProt P36507); test: KINOMEscan scanEDGE; format: binding; conditions: 20 uM
T8 construct: purchased Eurofins DiscoverX (KINOMEscan; SAFETYscan E/IC50 ELECT)

ADRA2A = target: T9, ADRA2A (Homo sapiens, UniProt P08913); test: SAFETYscan cAMP; format: cell-based; set-up: dose or concentration left out as unconfirmed
T9 construct: purchased Eurofins DiscoverX (KINOMEscan; SAFETYscan E/IC50 ELECT)
T9 sequence (P08913 whole entry): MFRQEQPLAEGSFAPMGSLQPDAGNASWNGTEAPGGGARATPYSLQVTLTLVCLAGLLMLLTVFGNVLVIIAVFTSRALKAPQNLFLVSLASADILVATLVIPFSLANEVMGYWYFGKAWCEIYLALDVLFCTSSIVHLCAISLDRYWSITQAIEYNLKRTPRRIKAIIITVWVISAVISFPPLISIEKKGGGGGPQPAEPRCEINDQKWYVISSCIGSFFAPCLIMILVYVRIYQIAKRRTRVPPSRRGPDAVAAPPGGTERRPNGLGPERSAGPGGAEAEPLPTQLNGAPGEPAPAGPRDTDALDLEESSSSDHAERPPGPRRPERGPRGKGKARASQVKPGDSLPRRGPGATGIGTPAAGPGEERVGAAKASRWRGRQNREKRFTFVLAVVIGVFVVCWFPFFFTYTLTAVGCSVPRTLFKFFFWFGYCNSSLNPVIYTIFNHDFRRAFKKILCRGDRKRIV
Description: (§1) The specificity of EDG-5506 for fast skeletal myosin over other, unrelated proteins was confirmed using two off-target binding and activity screens. […] A second off-target panel (SAFETYscan E/IC50 ELECT, Eurofins DiscoverX) tested in vitro enzyme activity against 78 proteins, including GPCR, ion channel, kinases, nuclear hormone receptors, and transporters. In all assays, the IC50 of EDG-5506 was more than 10 μM (Supplemental Data File 1).

CHRM2 = target: T10, CHRM2 (Homo sapiens, UniProt P08172); test: SAFETYscan cAMP; format: cell-based; set-up: dose or concentration left out as unconfirmed
T10 construct: purchased Eurofins DiscoverX (KINOMEscan; SAFETYscan E/IC50 ELECT)
T10 sequence (P08172 whole entry): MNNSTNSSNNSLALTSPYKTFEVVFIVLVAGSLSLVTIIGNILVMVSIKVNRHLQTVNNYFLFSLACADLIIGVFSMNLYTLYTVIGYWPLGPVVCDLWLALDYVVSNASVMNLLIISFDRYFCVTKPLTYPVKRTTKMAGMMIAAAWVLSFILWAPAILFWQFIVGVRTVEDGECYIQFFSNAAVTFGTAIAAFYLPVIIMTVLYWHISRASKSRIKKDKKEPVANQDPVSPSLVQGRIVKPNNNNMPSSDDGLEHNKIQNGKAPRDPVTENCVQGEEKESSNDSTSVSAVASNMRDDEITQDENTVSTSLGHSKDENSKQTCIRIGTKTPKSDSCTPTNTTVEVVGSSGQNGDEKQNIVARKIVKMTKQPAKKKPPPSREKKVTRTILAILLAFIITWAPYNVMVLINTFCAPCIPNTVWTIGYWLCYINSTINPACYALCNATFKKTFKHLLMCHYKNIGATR
Description: as §1

OPRK1 = target: T11, OPRK1 (Homo sapiens, UniProt P41145); test: SAFETYscan cAMP; format: cell-based; set-up: dose or concentration left out as unconfirmed
T11 construct: purchased Eurofins DiscoverX (KINOMEscan; SAFETYscan E/IC50 ELECT)
T11 sequence (P41145 whole entry): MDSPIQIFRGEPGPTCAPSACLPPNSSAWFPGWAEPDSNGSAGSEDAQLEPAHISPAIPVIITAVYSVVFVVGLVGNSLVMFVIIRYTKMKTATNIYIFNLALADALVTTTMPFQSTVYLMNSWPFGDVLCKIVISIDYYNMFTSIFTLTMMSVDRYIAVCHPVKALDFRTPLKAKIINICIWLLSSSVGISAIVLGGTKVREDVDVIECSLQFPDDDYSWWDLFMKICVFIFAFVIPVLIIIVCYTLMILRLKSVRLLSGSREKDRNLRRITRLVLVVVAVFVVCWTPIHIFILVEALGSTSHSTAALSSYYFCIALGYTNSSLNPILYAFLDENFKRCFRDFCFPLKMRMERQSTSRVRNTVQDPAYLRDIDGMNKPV
Description: as §1

CNR1 = target: T12, CNR1 (Homo sapiens, UniProt P21554); test: SAFETYscan cAMP; format: cell-based; set-up: dose or concentration left out as unconfirmed
T12 construct: purchased Eurofins DiscoverX (KINOMEscan; SAFETYscan E/IC50 ELECT)
T12 sequence (P21554 whole entry): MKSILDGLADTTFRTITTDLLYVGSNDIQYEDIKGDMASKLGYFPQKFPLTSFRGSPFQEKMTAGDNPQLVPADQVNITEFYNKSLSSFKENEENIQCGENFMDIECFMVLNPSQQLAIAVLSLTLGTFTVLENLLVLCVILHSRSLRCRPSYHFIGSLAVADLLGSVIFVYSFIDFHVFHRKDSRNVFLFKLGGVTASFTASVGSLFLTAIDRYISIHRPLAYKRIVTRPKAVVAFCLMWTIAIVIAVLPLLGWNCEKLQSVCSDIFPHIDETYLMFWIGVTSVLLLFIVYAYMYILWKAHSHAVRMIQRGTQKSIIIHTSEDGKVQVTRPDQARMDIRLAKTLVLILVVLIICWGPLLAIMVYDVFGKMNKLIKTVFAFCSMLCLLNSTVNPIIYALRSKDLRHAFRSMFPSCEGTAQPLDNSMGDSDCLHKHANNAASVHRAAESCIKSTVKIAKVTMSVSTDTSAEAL
Description: as §1

CNR2 = target: T13, CNR2 (Homo sapiens, UniProt P34972); test: SAFETYscan cAMP; format: cell-based; set-up: dose or concentration left out as unconfirmed
T13 construct: purchased Eurofins DiscoverX (KINOMEscan; SAFETYscan E/IC50 ELECT)
T13 sequence (P34972 whole entry): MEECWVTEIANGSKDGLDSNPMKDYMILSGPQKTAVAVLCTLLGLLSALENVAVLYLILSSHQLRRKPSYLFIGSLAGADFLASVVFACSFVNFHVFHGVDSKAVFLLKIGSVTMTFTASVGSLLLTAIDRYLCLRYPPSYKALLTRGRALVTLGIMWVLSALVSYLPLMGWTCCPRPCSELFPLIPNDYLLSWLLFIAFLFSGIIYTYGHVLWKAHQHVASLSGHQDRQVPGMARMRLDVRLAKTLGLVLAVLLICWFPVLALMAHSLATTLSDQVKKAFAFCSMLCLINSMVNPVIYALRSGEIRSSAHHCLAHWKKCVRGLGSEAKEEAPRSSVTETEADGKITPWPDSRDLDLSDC
Description: as §1

DRD2S = target: T14, DRD2S (Homo sapiens, UniProt P14416); test: SAFETYscan cAMP; format: cell-based; set-up: dose or concentration left out as unconfirmed
T14 construct: purchased Eurofins DiscoverX (KINOMEscan; SAFETYscan E/IC50 ELECT)
Description: as §1

ADRB1 = target: T15, ADRB1 (Homo sapiens, UniProt P08588); test: SAFETYscan cAMP; format: cell-based; set-up: dose or concentration left out as unconfirmed
T15 construct: purchased Eurofins DiscoverX (KINOMEscan; SAFETYscan E/IC50 ELECT)
T15 sequence (P08588 whole entry): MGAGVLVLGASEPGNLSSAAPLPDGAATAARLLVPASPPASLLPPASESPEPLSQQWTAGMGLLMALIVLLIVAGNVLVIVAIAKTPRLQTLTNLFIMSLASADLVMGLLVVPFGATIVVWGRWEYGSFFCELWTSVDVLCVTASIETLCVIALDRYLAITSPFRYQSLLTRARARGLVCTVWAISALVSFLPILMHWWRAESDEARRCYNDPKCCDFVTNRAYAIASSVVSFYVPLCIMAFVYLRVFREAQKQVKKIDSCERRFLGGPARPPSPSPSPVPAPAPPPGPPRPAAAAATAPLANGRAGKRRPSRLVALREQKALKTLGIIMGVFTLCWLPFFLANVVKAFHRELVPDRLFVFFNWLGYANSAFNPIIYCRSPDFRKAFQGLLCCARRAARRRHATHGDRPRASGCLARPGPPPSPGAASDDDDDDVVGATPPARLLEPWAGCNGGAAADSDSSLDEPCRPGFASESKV
Description: as §1

HRH2 = target: T16, HRH2 (Homo sapiens, UniProt P25021); test: SAFETYscan cAMP; format: cell-based; set-up: dose or concentration left out as unconfirmed
T16 construct: purchased Eurofins DiscoverX (KINOMEscan; SAFETYscan E/IC50 ELECT)
T16 sequence (P25021 whole entry): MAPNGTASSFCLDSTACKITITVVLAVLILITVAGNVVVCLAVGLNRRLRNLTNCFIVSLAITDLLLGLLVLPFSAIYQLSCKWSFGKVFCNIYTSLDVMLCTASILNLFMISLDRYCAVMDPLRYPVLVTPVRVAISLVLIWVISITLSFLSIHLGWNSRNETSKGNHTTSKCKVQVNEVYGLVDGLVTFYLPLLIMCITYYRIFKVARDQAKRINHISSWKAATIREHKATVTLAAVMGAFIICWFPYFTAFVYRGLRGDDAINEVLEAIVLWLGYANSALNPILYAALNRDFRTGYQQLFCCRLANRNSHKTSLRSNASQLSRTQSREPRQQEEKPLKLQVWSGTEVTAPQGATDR
Description: as §1

OPRM1 = target: T17, OPRM1 (Homo sapiens, UniProt P35372); test: SAFETYscan cAMP; format: cell-based; set-up: dose or concentration left out as unconfirmed
T17 construct: purchased Eurofins DiscoverX (KINOMEscan; SAFETYscan E/IC50 ELECT)
T17 sequence (P35372 whole entry): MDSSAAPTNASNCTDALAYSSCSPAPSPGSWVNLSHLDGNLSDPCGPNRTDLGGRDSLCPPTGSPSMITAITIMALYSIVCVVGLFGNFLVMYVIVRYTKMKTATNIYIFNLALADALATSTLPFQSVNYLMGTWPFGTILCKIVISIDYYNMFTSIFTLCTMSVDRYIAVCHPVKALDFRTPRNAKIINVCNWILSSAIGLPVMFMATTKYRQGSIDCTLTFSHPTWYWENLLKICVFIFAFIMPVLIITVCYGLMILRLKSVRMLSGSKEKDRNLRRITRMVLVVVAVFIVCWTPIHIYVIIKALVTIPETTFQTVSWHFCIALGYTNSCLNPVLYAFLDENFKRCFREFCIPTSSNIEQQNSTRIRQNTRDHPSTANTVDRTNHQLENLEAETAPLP
Description: as §1

ADRB2 = target: T18, ADRB2 (Homo sapiens, UniProt P07550); test: SAFETYscan cAMP; format: cell-based; set-up: dose or concentration left out as unconfirmed
T18 construct: purchased Eurofins DiscoverX (KINOMEscan; SAFETYscan E/IC50 ELECT)
T18 sequence (P07550 whole entry): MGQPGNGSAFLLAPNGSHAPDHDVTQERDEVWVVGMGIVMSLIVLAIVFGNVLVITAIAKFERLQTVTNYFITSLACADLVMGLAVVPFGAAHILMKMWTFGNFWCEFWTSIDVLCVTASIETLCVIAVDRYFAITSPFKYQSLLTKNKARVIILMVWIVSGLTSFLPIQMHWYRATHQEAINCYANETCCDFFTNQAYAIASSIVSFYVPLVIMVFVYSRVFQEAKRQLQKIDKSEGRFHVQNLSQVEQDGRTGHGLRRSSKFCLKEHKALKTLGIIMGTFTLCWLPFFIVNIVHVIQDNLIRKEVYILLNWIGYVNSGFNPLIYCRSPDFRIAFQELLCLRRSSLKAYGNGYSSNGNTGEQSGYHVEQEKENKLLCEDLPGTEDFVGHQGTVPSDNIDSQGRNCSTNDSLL
Description: as §1

HTR1B = target: T19, HTR1B (Homo sapiens, UniProt P28222); test: SAFETYscan cAMP; format: cell-based; set-up: dose or concentration left out as unconfirmed
T19 construct: purchased Eurofins DiscoverX (KINOMEscan; SAFETYscan E/IC50 ELECT)
T19 sequence (P28222 whole entry): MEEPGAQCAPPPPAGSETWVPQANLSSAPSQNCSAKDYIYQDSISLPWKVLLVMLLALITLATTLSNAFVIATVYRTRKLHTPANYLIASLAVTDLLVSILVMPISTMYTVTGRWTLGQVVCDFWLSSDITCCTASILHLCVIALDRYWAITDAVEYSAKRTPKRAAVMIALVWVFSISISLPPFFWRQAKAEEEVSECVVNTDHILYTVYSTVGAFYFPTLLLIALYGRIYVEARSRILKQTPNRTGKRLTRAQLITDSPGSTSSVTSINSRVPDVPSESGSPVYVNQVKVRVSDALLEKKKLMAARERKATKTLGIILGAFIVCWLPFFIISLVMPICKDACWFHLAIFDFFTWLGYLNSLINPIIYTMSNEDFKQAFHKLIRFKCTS
Description: as §1

OPRD1 = target: T20, OPRD1 (Homo sapiens, UniProt P41143); test: SAFETYscan cAMP; format: cell-based; set-up: dose or concentration left out as unconfirmed
T20 construct: purchased Eurofins DiscoverX (KINOMEscan; SAFETYscan E/IC50 ELECT)
Description: as §1

HTR1A = target: T21, HTR1A (Homo sapiens, UniProt P08908); test: SAFETYscan cAMP; format: cell-based; set-up: dose or concentration left out as unconfirmed
T21 construct: purchased Eurofins DiscoverX (KINOMEscan; SAFETYscan E/IC50 ELECT)
T21 sequence (P08908 whole entry): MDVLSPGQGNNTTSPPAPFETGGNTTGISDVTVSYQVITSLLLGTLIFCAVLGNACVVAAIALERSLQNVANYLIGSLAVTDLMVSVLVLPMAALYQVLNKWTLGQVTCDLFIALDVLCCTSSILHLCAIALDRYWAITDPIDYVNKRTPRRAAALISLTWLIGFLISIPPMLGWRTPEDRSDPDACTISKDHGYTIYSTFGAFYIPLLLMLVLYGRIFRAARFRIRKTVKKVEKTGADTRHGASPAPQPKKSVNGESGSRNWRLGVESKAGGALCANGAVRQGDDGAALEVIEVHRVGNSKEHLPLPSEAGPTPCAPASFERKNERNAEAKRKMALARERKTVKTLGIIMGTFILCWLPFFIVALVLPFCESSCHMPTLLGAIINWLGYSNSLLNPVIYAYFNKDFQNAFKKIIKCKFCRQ
Description: as §1

[4] = mdx EDG-5506 3 mg/kg vs mdx Control
[5] = read-out: Max Response (%) (Agonist)
[6] = read-out: Max Response (%) (Antagonist)

`O=c1ccc(-c2cnc(OCC(F)(F)F)nc2)nn1Cc1cncc(F)c1` [EDG-5506] was tested, and the “binding, % of control” value (ALK) was 95 % of control, the “binding, % of control” value [1] was 94 % of control and the “binding, % of control” value (TRKA) was 98 % of control. For the same compound, the “binding, % of control” value (CDK11) was 95 % of control, the “binding, % of control” value (BRAF) was 91 % of control and the “log2FoldChange Chrng” value ([2]; mdx EDG-5506 3 mg/kg vs WT) was 0.42. For the same compound, the “log2FoldChange Igfn1” value ([2]; mdx EDG-5506 3 mg/kg vs WT) was 2.931, the “log2FoldChange Katnal2” value ([2]; mdx EDG-5506 3 mg/kg vs WT) was 1.899 and the “log2FoldChange Myh8” value ([2]; mdx EDG-5506 3 mg/kg vs WT) was 0.5674. The “log2FoldChange Myl4” value ([2]; mdx EDG-5506 3 mg/kg vs WT) was 1.684, the “log2FoldChange Chrng” value [2, 4] was -0.2866 and the “log2FoldChange Igfn1” value [2, 4] was -0.9018. For the same compound, the “log2FoldChange Katnal2” value [2, 4] was -0.9377, the “log2FoldChange Myh8” value [2, 4] was -0.538 and the “log2FoldChange Myl4” value [2, 4] was -1.31. For the same compound, the “skeletal muscle transcription profile” value ([2]; mdx mice, 8 weeks) was “returned the skeletal muscle transcription profile closer to that of WT mice”, the “binding, % of control” value [3] was 100 % of control and the “binding, % of control” value (EGFR) was 100 % of control. The “binding, % of control” value (MEK2) was 72 % of control, the Emax (ADRA2A; [5]) was 19.2% and the Emax (ADRA2A; [6]) was 0.88%. It also gave an Emax (CHRM2; [5]) of 21.5%, an Emax (CHRM2; [6]) of 0% and an Emax (OPRK1; [5]) of 9.76%. The Emax (OPRK1; [6]) was 0.05%, the Emax (CNR1; [5]) was 14.8% and the Emax (CNR1; [6]) was 3.38%. The Emax (CNR2; [5]) was 27.5%, the Emax (CNR2; [6]) was 0% and the Emax (DRD2S; [5]) was 7.3%. It also gave an Emax (DRD2S; [6]) of 1.39%, an Emax (ADRB1; [5]) of 2.02% and an Emax (ADRB1; [6]) of 9.68%. The Emax (HRH2; [5]) was 0%, the Emax (HRH2; [6]) was 15% and the Emax (OPRM1; [5]) was 17.4%. It also gave an Emax (OPRM1; [6]) of 0.2%, an Emax (ADRB2; [5]) of 0.97% and an Emax (ADRB2; [6]) of 20.8%. It also gave an Emax (HTR1B; [5]) of 0%, an Emax (HTR1B; [6]) of 4.17% and an Emax (OPRD1; [5]) of 7.61%. The Emax (OPRD1; [6]) was 9.41%, the Emax (HTR1A; [5]) was 0% and the Emax (HTR1A; [6]) was 1.51%.
